In patent US20220281848A1, “PYRAZOLE-SUBSTITUTED PYRROLIDINONES AS HERBICIDES” (FMC Corporation, priority 2019, published 2022):

Tested on: plants
Experiment: Test D pre-emergence, other plants of Tables D1 and D3
Format: in vivo
Conditions: for damage to plant, ALOMY / damage to plant, AVEFA / damage to plant, BEAVA / damage to plant, BROTE / damage to plant, BRSNN / damage to plant, HORVW / damage to plant, SINAR: pre-emergence, 100=total damage, 0=no damage; for ABUTH damage to plant (100=total damage; 0=no damage) / AMARE damage to plant (100=total damage; 0=no damage) / DIGSA damage to plant (100=total damage; 0=no damage) / ECHCG damage to plant (100=total damage; 0=no damage) / ORYSA damage to plant (100=total damage; 0=no damage) / PANMI damage to plant (100=total damage; 0=no damage) / SETFA damage to plant (100=total damage; 0=no damage): preemergent
Protocol: A formulation containing 50 g/L of the test chemical was prepared by dissolving the active ingredient in a mixture of organic solvents and emulsifier, details of which are provided in the table. This formulation was then mixed with a small, variable amount of acetone to aid dissolution, before addition of a 0.2% v/v aqueous solution of an adjuvant, as the aqueous diluent, to form an aqueous spray solution which contains a predetermined concentration of the active ingredient.
This aqueous spray solution was then sprayed onto plants including maize and wheat that had been seed treated with a herbicide safener, after one day's cultivation (for pre-emergence) or after about 12 days' cultivation (for post-emergence). The plants were grown from seeds sown in standard soil, placed in a glasshouse under controlled conditions (at 24/18° C. or 20/16° C., day/night; 16 h light; 65% humidity). After spray application the plants were then grown in a glasshouse under the same conditions and watered twice daily. After 15 d for post-emergence and 20 DAA for pre-emergence the test was evaluated (100=total damage to plant; 0=no damage to plant).

CN1CC(c2cc(C(F)(F)F)n(C)n2)C(C(=O)Nc2cccc(F)n2)C1=O (racemic) [Compound 24]
30: DIGSA damage to plant (100=total damage; 0=no damage) (Rates 30, 20 DAA) | SETFA damage to plant (100=total damage; 0=no damage) (Rates 130, 20 DAA)
90: DIGSA damage to plant (100=total damage; 0=no damage) (Rates 130, 20 DAA) | DIGSA damage to plant (100=total damage; 0=no damage) (Rates 250, 20 DAA) | ECHCG damage to plant (100=total damage; 0=no damage) (Rates 250, 20 DAA) | DIGSA damage to plant (100=total damage; 0=no damage) (Rates 500, 20 DAA) | ECHCG damage to plant (100=total damage; 0=no damage) (Rates 500, 20 DAA) | SETFA damage to plant (100=total damage; 0=no damage) (Rates 500, 20 DAA)
0: damage to plant, ALOMY (rate 15, 20 DAA) | damage to plant, AVEFA (rate 15, 20 DAA) | damage to plant, BEAVA (rate 15, 20 DAA) | damage to plant, BROTE (rate 15, 20 DAA) | damage to plant, BRSNN (rate 15, 20 DAA) | damage to plant, HORVW (rate 15, 20 DAA) | damage to plant, SINAR (rate 15, 20 DAA) | damage to plant, ALOMY (rate 30, 20 DAA) | damage to plant, AVEFA (rate 30, 20 DAA) | damage to plant, BEAVA (rate 30, 20 DAA) | damage to plant, BROTE (rate 30, 20 DAA) | damage to plant, BRSNN (rate 30, 20 DAA) | damage to plant, HORVW (rate 30, 20 DAA) | damage to plant, SINAR (rate 30, 20 DAA) | damage to plant, ALOMY (rate 60, 20 DAA) | damage to plant, AVEFA (rate 60, 20 DAA) | damage to plant, BEAVA (rate 60, 20 DAA) | damage to plant, BROTE (rate 60, 20 DAA) | damage to plant, BRSNN (rate 60, 20 DAA) | damage to plant, HORVW (rate 60, 20 DAA) | damage to plant, SINAR (rate 60, 20 DAA) | damage to plant, ALOMY (rate 130, 20 DAA) | damage to plant, AVEFA (rate 130, 20 DAA) | damage to plant, BEAVA (rate 130, 20 DAA) | damage to plant, BROTE (rate 130, 20 DAA) | damage to plant, BRSNN (rate 130, 20 DAA) | damage to plant, HORVW (rate 130, 20 DAA) | damage to plant, SINAR (rate 130, 20 DAA) | damage to plant, ALOMY (rate 250, 20 DAA) | damage to plant, AVEFA (rate 250, 20 DAA) | damage to plant, BEAVA (rate 250, 20 DAA) | damage to plant, BROTE (rate 250, 20 DAA) | damage to plant, BRSNN (rate 250, 20 DAA) | damage to plant, HORVW (rate 250, 20 DAA) | damage to plant, SINAR (rate 250, 20 DAA) | damage to plant, BEAVA (rate 500, 20 DAA) | damage to plant, BROTE (rate 500, 20 DAA) | damage to plant, BRSNN (rate 500, 20 DAA) | damage to plant, SINAR (rate 500, 20 DAA) | ABUTH damage to plant (100=total damage; 0=no damage) (Rates 15, 20 DAA) | AMARE damage to plant (100=total damage; 0=no damage) (Rates 15, 20 DAA) | DIGSA damage to plant (100=total damage; 0=no damage) (Rates 15, 20 DAA) | ECHCG damage to plant (100=total damage; 0=no damage) (Rates 15, 20 DAA) | ORYSA damage to plant (100=total damage; 0=no damage) (Rates 15, 20 DAA) | PANMI damage to plant (100=total damage; 0=no damage) (Rates 15, 20 DAA) | SETFA damage to plant (100=total damage; 0=no damage) (Rates 15, 20 DAA) | ABUTH damage to plant (100=total damage; 0=no damage) (Rates 30, 20 DAA) | AMARE damage to plant (100=total damage; 0=no damage) (Rates 30, 20 DAA) | ORYSA damage to plant (100=total damage; 0=no damage) (Rates 30, 20 DAA) | PANMI damage to plant (100=total damage; 0=no damage) (Rates 30, 20 DAA) | SETFA damage to plant (100=total damage; 0=no damage) (Rates 30, 20 DAA) | ABUTH damage to plant (100=total damage; 0=no damage) (Rates 60, 20 DAA) | AMARE damage to plant (100=total damage; 0=no damage) (Rates 60, 20 DAA) | ORYSA damage to plant (100=total damage; 0=no damage) (Rates 60, 20 DAA) | PANMI damage to plant (100=total damage; 0=no damage) (Rates 60, 20 DAA) | SETFA damage to plant (100=total damage; 0=no damage) (Rates 60, 20 DAA) | ABUTH damage to plant (100=total damage; 0=no damage) (Rates 130, 20 DAA) | AMARE damage to plant (100=total damage; 0=no damage) (Rates 130, 20 DAA) | ORYSA damage to plant (100=total damage; 0=no damage) (Rates 130, 20 DAA) | PANMI damage to plant (100=total damage; 0=no damage) (Rates 130, 20 DAA) | AMARE damage to plant (100=total damage; 0=no damage) (Rates 250, 20 DAA) | ORYSA damage to plant (100=total damage; 0=no damage) (Rates 250, 20 DAA) | PANMI damage to plant (100=total damage; 0=no damage) (Rates 250, 20 DAA) | ORYSA damage to plant (100=total damage; 0=no damage) (Rates 500, 20 DAA) | PANMI damage to plant (100=total damage; 0=no damage) (Rates 500, 20 DAA)
20: damage to plant, HORVW (rate 500, 20 DAA) | ABUTH damage to plant (100=total damage; 0=no damage) (Rates 250, 20 DAA) | ABUTH damage to plant (100=total damage; 0=no damage) (Rates 500, 20 DAA)
50: ECHCG damage to plant (100=total damage; 0=no damage) (Rates 60, 20 DAA)
60: SETFA damage to plant (100=total damage; 0=no damage) (Rates 250, 20 DAA)
70: ECHCG damage to plant (100=total damage; 0=no damage) (Rates 130, 20 DAA)
80: DIGSA damage to plant (100=total damage; 0=no damage) (Rates 60, 20 DAA)
10: damage to plant, ALOMY (rate 500, 20 DAA) | damage to plant, AVEFA (rate 500, 20 DAA) | ECHCG damage to plant (100=total damage; 0=no damage) (Rates 30, 20 DAA) | AMARE damage to plant (100=total damage; 0=no damage) (Rates 500, 20 DAA)
